Measurements taken from patent US20120265121A1, “PHTHALOCYANINE-BASED ANTIFUNGAL AGENTS” (CASE WESTERN RESERVE UNIVERSITY, priority 2011, published 2012).

Columns and labels:
[1] = tested on: C. albicans (strain SC-5134); experiment: XTT reduction metabolic activity assay; type: cell-based, Candida albicans
Method: Metabolic Activity Assay: XTT reduction assays were performed according to the procedure of Chandra et al. Chandra et al., Nature Protocol. 3(12): 1909-2 (2008). Briefly, in the dark, aliquots of 2 ml of cells were treated with 200 nM of Pc 4 in 10% FBS standard growth medium in a 37° C. shaker. The next day, the cells were photoirradiated with red light using a light-emitting diode array (EFOS, Mississauga, Ontario, Canada) at a fluence of 200, 500, 1000 and 2000 mil/cm^2 (1 milliwat/cm^2, ymax ˜670-675 nm) at room temperature. For negative controls, a 2 ml aliquot was not photoirradiated and a 2 ml aliquot simply was loaded overnight with an appropriate amount of N′,N′-dimethylformamide and then photoirridated with the highest fluence the next day. For positive control, either cells were treated with 30% ethanol or 1 uM of Thapsigargin. […] One ml of each treatment condition was used to incubate with XTT (final concentration 1 mg/ml) and menadione (final concentration 1 mM) for 5 hours in the dark and then transferred to 1 ml plastic cuvette for absorbance measurement. Colorimetric changes, which reflect the viability of the cells given different treatment conditions, were measured at 492-nm using a spectrophotometer (Spectronic Genesys™ 5, Analytical Instrument, Golden Valley, Minn., USA). […]

[2] = topical application; cited from earlier work
[3] = tested on: C. albicans (strain SC-5134); experiment: Chromatin condensation by confocal microscopy; type: cell-based, Candida albicans; conditions: highest dose of Pc 4-PDT or peroxide, 24 hr after treatment
Method: Confocal Microscopy: To investigate the uptake and localization of Pc 4, cells in standard growth medium plus 10% Fetal Bovine Serum (FBS) were loaded with 0.2 μM Pc 4 and incubated for 16 to 18 hr. Thirty minutes prior to imaging Pc 4, 50 nM MitoTracker Red (Invitrogen, Carlsbad, Calif., USA) or 50 μg/mL AlexaFluor 488-conjugated Concanavalin (Con) A (Invitrogen, Carlsbad, Calif., USA) and/or 10 μg/mL Hoechst 33342 (Invitrogen, Carlsbad, Calif., USA) was loaded onto cells. Five to 10 μL of stained cells were placed on a slide with a glass coverslip and all images acquired using an UltraVIEW VoX spinning disk confocal system (PerkinElmer, Waltham, Mass., USA), which was mounted on a Leica DMI6000B microscope (Leica Microsystems, Inc., Bannockburn, Ill., USA) equipped with a HCX PL APO 100×/1.4 oil immersion objective. Confocal images of Pc 4 fluorescence, MitoTracker Red, ConA (or FITC-labeled Annexin V) and Hoechst 33342 were collected using solid-state diode lasers, with 640-nm, 561-nm, 488-nm and 405-nm excitation light, respectively, and with appropriate emission filters.

**Q.** What does the source list for CN(C)CCC[Si](C)(C)O[Si]1(O)n2c3c4ccccc4c2N=C2N=C(N=c4c5ccccc5c(n41)=NC1=NC(=N3)c3ccccc31)c1ccccc12 (stereo not shown) [Pc 4, HOSiPcOSi(CH3)2(CH2)3N(CH3)2]?
**A.** metabolic activity (XTT, percent viability), FIG. 1 ([1]; 200 nM Pc 4 + 0.2-2.0 J/cm^2): impairs fungal metabolic activity; reduction of metabolic activity (XTT) ([1]; highest Pc 4-PDT dose (1.0 μM, 2.0 J/cm^2), within an hour following photoirradiation): ~50%; penetration through stratum corneum and epidermis [2]: penetrate through the stratum corneum and epidermis; chromatin condensation [3]: detected
